Experimental data taken from patent EP0114128A1, “3-Amino-2-oxo-azetidine derivatives containing in position 1 a nitrogen heterocyclic radical, process for their preparation, their use as therapeutical agents and intermediates for their preparation” (priority 1983, dated 1984).
Values after ≈ are worked out from the molar mass of the structure shown. Like-named read-outs stand apart in the source and are kept apart here.

Columns and labels:
Assay in all cases: In vitro activity, dilution method in liquid medium (MIC)
Type in all cases: cell-based
Escherichia Coli 1894 = details: read-out: concentrations minimales inhibitrices (C. M. I.)
Experimental: (§1) Etude pharmacologiaue des produits de l'invention. Activité in vitro, méthode des dilutions en milieu liquide.
(§2) On prépare une série de tubes dans lesquels on répartit une même quantité de milieu nutritif stérile. On distribue dans chaque tube des quantités croissantes du produit à étudier, puis chaque tube est ensemencé avec une souche bactérienne. Après incubation de vingt-quatre ou quarante-huit heures à l'étuve à 37°C, l'inhibition de la croissance est appréciée par transillumination ce qui permet de déterminer les concentrations minimales inhibitrices (C. M. I.) exprimées en µg/cm3.

Escherichia Coli 1507 E = details: COLI1507E, read-out: concentrations minimales inhibitrices (C. M. I.)
Experimental: as §1, §2

[1] = tested on: Salmonella typhimurium MZ 11; details: Salmonella enterica, read-out: concentrations minimales inhibitrices (C. M. I.)
Experimental: as §1, §2

Escherichia Coli DC0 = details: read-out: concentrations minimales inhibitrices (C. M. I.)
Experimental: as §1, §2

Proteus mirabilis A 235 = details: read-out: concentrations minimales inhibitrices (C. M. I.)
Experimental: as §1, §2

Proteus vulgaris A 232 = details: read-out: concentrations minimales inhibitrices (C. M. I.)
Experimental: as §1, §2

[2] = tested on: Enterobacter cloacae 1321 E; details: read-out: concentrations minimales inhibitrices (C. M. I.)
Experimental: as §1, §2

[3] = tested on: Klebsiella Aeruginosa 1522 E; details: read-out: concentrations minimales inhibitrices (C. M. I.)
Experimental: as §1, §2

Escherichia Coli DC2 = details: read-out: concentrations minimales inhibitrices (C. M. I.)
Experimental: as §1, §2

[4] = tested on: Pseudomonas aeruginosa 1771 m; details: read-out: concentrations minimales inhibitrices (C. M. I.)
Experimental: as §1, §2

Escherichia Coli 078 = details: read-out: concentrations minimales inhibitrices (C. M. I.)
Experimental: as §1, §2

Escherichia Coli TEM = details: read-out: concentrations minimales inhibitrices (C. M. I.)
Experimental: as §1, §2

[5] = tested on: Klebsiella pneumonae 52145; details: read-out: concentrations minimales inhibitrices (C. M. I.)
Experimental: as §1, §2

Serratia marcesceus 2532 = details: read-out: concentrations minimales inhibitrices (C. M. I.)
Experimental: as §1, §2

Providencia DU 48 = details: read-out: concentrations minimales inhibitrices (C. M. I.)
Experimental: as §1, §2

[6] = COLI1894, 24 H incubation at 37°C
[7] = COLI1894, 48 H incubation at 37°C
[8] = COLIDC0, 24 H incubation at 37°C
[9] = COLIDC0, 48 H incubation at 37°C
[10] = COLIDC2, 24 H incubation at 37°C
[11] = COLIDC2, 48 H incubation at 37°C
[12] = COLI078, 24 H incubation at 37°C
[13] = COLI078, 48 H incubation at 37°C

Compound	MIC (Escherichia Coli 1894; [6]) [µg/mL]	MIC (Escherichia Coli 1894; [7]) [µg/mL]	MIC (Escherichia Coli 1507 E; 24 H incubation at 37°C) [µg/mL]	MIC (Escherichia Coli 1507 E; 48 H incubation at 37°C) [µg/mL]	MIC ([1]; 24 H incubation at 37°C) [µg/mL]	MIC ([1]; 48 H incubation at 37°C) [µg/mL]	MIC (Escherichia Coli DC0; [8]) [µg/mL]	MIC (Escherichia Coli DC0; [9]) [µg/mL]	MIC (Proteus mirabilis A 235; A235, 24 H incubation at 37°C) [µg/mL]	MIC (Proteus mirabilis A 235; A235, 48 H incubation at 37°C) [µg/mL]	MIC (Proteus vulgaris A 232; A232, 24 H incubation at 37°C) [µg/mL]	MIC (Proteus vulgaris A 232; A232, 48 H incubation at 37°C) [µg/mL]	MIC ([2]; 24 H incubation at 37°C) [µg/mL]	MIC ([2]; 48 H incubation at 37°C) [µg/mL]	MIC ([3]; 24 H incubation at 37°C) [µg/mL]	MIC ([3]; 48 H incubation at 37°C) [µg/mL]	MIC (Escherichia Coli DC2; [10]) [µg/mL]	MIC (Escherichia Coli DC2; [11]) [µg/mL]	MIC ([4]; 24 H incubation at 37°C) [µg/mL]	MIC ([4]; 48 H incubation at 37°C) [µg/mL]	other results
C[C@@H]1[C@H](NC(=O)/C(=N\OC(C)(C)C(=O)O)c2csc(N)n2)C(=O)N1c1nn[nH]n1 (racemic) [Prod. ex.7, (3SR, 4RS) 3-//2-(-2-aminothiazol-4-yl) 2-/(1-carboxy 1-méthyléthoxy) imino/ acétyl/ aminol/4-méthyl 1-(tétrazol-5-yl) 2-azétidinone isomère syn]	0.6 (≈ 1.42 µM)	0.6 (≈ 1.42 µM)	1.2 (≈ 2.83 µM)	1.2 (≈ 2.83 µM)	0.6 (≈ 1.42 µM)	0.6 (≈ 1.42 µM)	0.6 (≈ 1.42 µM)	1.2 (≈ 2.83 µM)	0.15 (≈ 0.354 µM)	0.15 (≈ 0.354 µM)	0.08 (≈ 0.189 µM)	0.08 (≈ 0.189 µM)	2.5 (≈ 5.9 µM)	2.5 (≈ 5.9 µM)	1.2 (≈ 2.83 µM)	1.2 (≈ 2.83 µM)	0.6 (≈ 1.42 µM)	0.6 (≈ 1.42 µM)	0.6 (≈ 1.42 µM)	0.6 (≈ 1.42 µM)	MIC (Escherichia Coli 078; [12]): 0.3 µg/mL (≈ 0.709 µM); MIC (Escherichia Coli 078; [13]): 0.6 µg/mL (≈ 1.42 µM); MIC (Escherichia Coli TEM; 24 h): 1.2 µg/mL (≈ 2.83 µM); MIC (Escherichia Coli TEM; 48 h): 1.2 µg/mL (≈ 2.83 µM); MIC ([5]; 24 H incubation at 37°C): 2.5 µg/mL (≈ 5.9 µM); MIC ([5]; 48 H incubation at 37°C): 2.5 µg/mL (≈ 5.9 µM); MIC (Serratia marcesceus 2532; 24 H incubation at 37°C): 1.2 µg/mL (≈ 2.83 µM); MIC (Serratia marcesceus 2532; 48 H incubation at 37°C): 1.2 µg/mL (≈ 2.83 µM); MIC (Providencia DU 48; DU48, 24 H incubation at 37°C): 0.6 µg/mL (≈ 1.42 µM); MIC (Providencia DU 48; DU48, 48 H incubation at 37°C): 0.6 µg/mL (≈ 1.42 µM)
CO/N=C(\C(=O)N[C@@H]1C(=O)N(c2nn[nH]n2)[C@@H]1C)c1csc(N)n1 (racemic) [Prod. ex. 1, (3SR. 4RS) 3-//2-(2-aminothiazol-4-yl) 2-méthoxyimino acétyl/ amino/-4-méthyl 1-(1H-tétrazol-5-yl)-2-azétidinone isomère syn]	0.08 (≈ 0.228 µM)	0.08 (≈ 0.228 µM)	0.3 (≈ 0.854 µM)	0.3 (≈ 0.854 µM)	1.2 (≈ 3.42 µM)	1.2 (≈ 3.42 µM)	1.2 (≈ 3.42 µM)	1.2 (≈ 3.42 µM)	0.15 (≈ 0.427 µM)	0.15 (≈ 0.427 µM)	0.3 (≈ 0.854 µM)	0.3 (≈ 0.854 µM)	0.6 (≈ 1.71 µM)	0.6 (≈ 1.71 µM)	1.2 (≈ 3.42 µM)	1.2 (≈ 3.42 µM)	0.6 (≈ 1.71 µM)	0.6 (≈ 1.71 µM)	≤ 5	≤ 5	MIC (Escherichia Coli 078; [12]): 0.3 µg/mL (≈ 0.854 µM); MIC (Escherichia Coli 078; [13]): 0.3 µg/mL (≈ 0.854 µM); MIC (Escherichia Coli TEM; 24 h): 0.6 µg/mL (≈ 1.71 µM); MIC (Escherichia Coli TEM; 48 h): 1.2 µg/mL (≈ 3.42 µM); MIC ([5]; 24 H incubation at 37°C): 1.2 µg/mL (≈ 3.42 µM); MIC ([5]; 48 H incubation at 37°C): 2.5 µg/mL (≈ 7.12 µM); MIC (Serratia marcesceus 2532; 24 H incubation at 37°C): 20 µg/mL (≈ 56.9 µM); MIC (Serratia marcesceus 2532; 48 H incubation at 37°C): 20 µg/mL (≈ 56.9 µM); MIC (Providencia DU 48; DU48, 24 H incubation at 37°C): 0.6 µg/mL (≈ 1.71 µM); MIC (Providencia DU 48; DU48, 48 H incubation at 37°C): 0.6 µg/mL (≈ 1.71 µM)
CO/N=C(\C(=O)N[C@H]1CN(c2nn[nH]n2)C1=O)c1csc(N)n1 [Prod. ex.3, (3S) 3-//2-(2-aminothiazol-4-yl) 2-méthoxyimino acétyl /amino/ 1-(lH-tétrazol-5-yl) 2-azétidinone]	0.15 (≈ 0.445 µM)	0.15 (≈ 0.445 µM)	0.6 (≈ 1.78 µM)	0.6 (≈ 1.78 µM)	0.3 (≈ 0.889 µM)	0.3 (≈ 0.889 µM)	0.6 (≈ 1.78 µM)	1.2 (≈ 3.56 µM)	0.6 (≈ 1.78 µM)	0.6 (≈ 1.78 µM)	0.3 (≈ 0.889 µM)	0.3 (≈ 0.889 µM)	0.3 (≈ 0.889 µM)	0.3 (≈ 0.889 µM)	0.3 (≈ 0.889 µM)	0.3 (≈ 0.889 µM)	0.6 (≈ 1.78 µM)	0.6 (≈ 1.78 µM)	5 (≈ 14.8 µM)	10 (≈ 29.6 µM)	MIC (Escherichia Coli 078; [12]): 0.3 µg/mL (≈ 0.889 µM); MIC (Escherichia Coli 078; [13]): 0.3 µg/mL (≈ 0.889 µM); MIC (Escherichia Coli TEM; 24 h): 10 µg/mL (≈ 29.6 µM); MIC (Escherichia Coli TEM; 48 h): 10 µg/mL (≈ 29.6 µM); MIC ([5]; 24 H incubation at 37°C): 1.2 µg/mL (≈ 3.56 µM); MIC ([5]; 48 H incubation at 37°C): 1.2 µg/mL (≈ 3.56 µM); MIC (Serratia marcesceus 2532; 24 H incubation at 37°C): 2.5 µg/mL (≈ 7.41 µM); MIC (Serratia marcesceus 2532; 48 H incubation at 37°C): 5 µg/mL (≈ 14.8 µM); MIC (Providencia DU 48; DU48, 24 H incubation at 37°C): 0.3 µg/mL (≈ 0.889 µM); MIC (Providencia DU 48; DU48, 48 H incubation at 37°C): 0.6 µg/mL (≈ 1.78 µM)
CO/N=C(\C(=O)N[C@@H]1C(=O)N(c2nn[nH]n2)[C@H]1C)c1csc(N)n1 (racemic) [Prod. ex. 2, (3SR, 4SR) 3-//2-(2-aminothiazol-4-yl) 2-méthoxyimino acétyl/ amino/ 4-méthyl 1-(1H-tétrazol-5-yl) 2-azétidinone]	0.3 (≈ 0.854 µM)	0.3 (≈ 0.854 µM)	0.6 (≈ 1.71 µM)	0.6 (≈ 1.71 µM)	1.2 (≈ 3.42 µM)	2.5 (≈ 7.12 µM)	2.5 (≈ 7.12 µM)	2.5 (≈ 7.12 µM)	0.6 (≈ 1.71 µM)	1.2 (≈ 3.42 µM)	1.2 (≈ 3.42 µM)	2.5 (≈ 7.12 µM)	1.2 (≈ 3.42 µM)	1.2 (≈ 3.42 µM)	0.6 (≈ 1.71 µM)	0.6 (≈ 1.71 µM)	0.6 (≈ 1.71 µM)	1.2 (≈ 3.42 µM)	≤ 5	≤ 5	MIC (Escherichia Coli 078; [12]): 0.6 µg/mL (≈ 1.71 µM); MIC (Escherichia Coli 078; [13]): 0.6 µg/mL (≈ 1.71 µM); MIC (Escherichia Coli TEM; 24 h): 10 µg/mL (≈ 28.5 µM); MIC (Escherichia Coli TEM; 48 h): 10 µg/mL (≈ 28.5 µM); MIC ([5]; 24 H incubation at 37°C): 2.5 µg/mL (≈ 7.12 µM); MIC ([5]; 48 H incubation at 37°C): 2.5 µg/mL (≈ 7.12 µM); MIC (Serratia marcesceus 2532; 24 H incubation at 37°C): 20 µg/mL (≈ 56.9 µM); MIC (Serratia marcesceus 2532; 48 H incubation at 37°C): > 40 µg/mL; MIC (Providencia DU 48; DU48, 24 H incubation at 37°C): 1.2 µg/mL (≈ 3.42 µM); MIC (Providencia DU 48; DU48, 48 H incubation at 37°C): 1.2 µg/mL (≈ 3.42 µM)
